Experimental data published in ChEMBL document CHEMBL1201862, “PubChem BioAssay data set” (2004).
One block for each compound: values may come before it. Calls of active or inactive are those of the source.

Assays:
[1] = molecular target: T1, E3 ubiquitin-protein ligase XIAP (Homo sapiens, UniProt P98170); assay: XIAP antagonists, biochemical, IAP family, fluorescence polarization (AID 1018); assay type: functional
[2] = molecular target: T1, E3 ubiquitin-protein ligase XIAP; assay: Counter Screen using XIAP-Bir3 for Chemical Antagonists of Bir1/2 domains of IAP-family anti-apoptotic proteins. [Related pubchem assays (depositor defined):AID1018, AID1449, AID1514, AID1638, AID1749, AID1750, AID488957, AID488963]
Troponin, cardiac muscle = Troponin, cardiac muscle (Homo sapiens, UniProt P19429+P45379+P63316); assay: Fluorescence-based biochemical high throughput dose response assay for activators of the calcium sensitivity of cardiac Regulated Thin Filaments (RTF). [Related pubchem assays (depositor defined):AID493008, AID493018, AID504382, AID504383]; assay type: protein-complex assay
Hexokinase = molecular target: T2, Hexokinase (Trypanosoma brucei, UniProt Q38C41); assay: Confirmation assay for inhibitors of Trypanosoma brucei hexokinase 1-Analogue-first series. [Related pubchem assays (depositor defined):AID1430, AID1632, AID2516, AID2560, AID2579, AID2600, AID449725, AID492951]; assay type: functional
T2 sequence (Q38C41 whole entry): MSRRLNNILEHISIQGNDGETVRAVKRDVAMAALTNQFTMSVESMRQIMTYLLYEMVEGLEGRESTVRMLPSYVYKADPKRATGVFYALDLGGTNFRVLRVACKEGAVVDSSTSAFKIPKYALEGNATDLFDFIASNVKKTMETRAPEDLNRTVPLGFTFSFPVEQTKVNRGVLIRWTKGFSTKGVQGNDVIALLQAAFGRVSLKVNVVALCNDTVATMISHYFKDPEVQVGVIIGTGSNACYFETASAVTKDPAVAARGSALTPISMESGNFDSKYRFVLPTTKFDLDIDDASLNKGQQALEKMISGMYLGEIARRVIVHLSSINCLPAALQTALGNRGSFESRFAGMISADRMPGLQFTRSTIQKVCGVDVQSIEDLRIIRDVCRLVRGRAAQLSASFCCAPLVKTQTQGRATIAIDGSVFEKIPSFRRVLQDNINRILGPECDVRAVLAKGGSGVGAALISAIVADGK

[3] = HeLa cell cytotoxicity, dose response, cytotoxicity control for MgcRacGAP inhibitor project (AID 624300); assay type: functional
[4] = molecular target: Glucose-6-phosphate 1-dehydrogenase (Homo sapiens, UniProt P11413); assay: human G6PD enzyme inhibitors, dose response, selectivity assay for P. falciparum G6PD inhibitor project, biochemical, fluorescence (AID 504792); assay type: functional
Chain of Glucose-6-phosphate 1-dehydrogenase (P11413 whole entry): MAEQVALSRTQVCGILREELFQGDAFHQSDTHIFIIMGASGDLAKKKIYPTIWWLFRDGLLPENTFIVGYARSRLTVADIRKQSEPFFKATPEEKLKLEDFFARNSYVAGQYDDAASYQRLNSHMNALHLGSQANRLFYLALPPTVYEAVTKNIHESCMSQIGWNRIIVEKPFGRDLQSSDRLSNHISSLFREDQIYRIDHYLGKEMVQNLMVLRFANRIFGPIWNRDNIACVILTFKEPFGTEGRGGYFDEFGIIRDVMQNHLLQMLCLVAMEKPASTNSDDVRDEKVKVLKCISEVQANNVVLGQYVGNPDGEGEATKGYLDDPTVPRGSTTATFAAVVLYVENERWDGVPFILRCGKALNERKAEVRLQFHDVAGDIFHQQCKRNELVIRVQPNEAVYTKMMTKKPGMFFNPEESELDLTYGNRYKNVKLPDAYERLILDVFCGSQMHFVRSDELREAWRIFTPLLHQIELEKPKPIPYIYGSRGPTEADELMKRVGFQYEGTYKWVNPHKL

[5] = molecular target: T3, Rac GTPase-activating protein 1 (Homo sapiens, UniProt Q9H0H5); assay: MgcRacGAP GTPase-activating activity inhibitors, confirmation, biochemical, ADP Hunter fluorescence, primary and confirmatory (AID 624330); assay type: functional
T3 sequence (Q9H0H5 whole entry): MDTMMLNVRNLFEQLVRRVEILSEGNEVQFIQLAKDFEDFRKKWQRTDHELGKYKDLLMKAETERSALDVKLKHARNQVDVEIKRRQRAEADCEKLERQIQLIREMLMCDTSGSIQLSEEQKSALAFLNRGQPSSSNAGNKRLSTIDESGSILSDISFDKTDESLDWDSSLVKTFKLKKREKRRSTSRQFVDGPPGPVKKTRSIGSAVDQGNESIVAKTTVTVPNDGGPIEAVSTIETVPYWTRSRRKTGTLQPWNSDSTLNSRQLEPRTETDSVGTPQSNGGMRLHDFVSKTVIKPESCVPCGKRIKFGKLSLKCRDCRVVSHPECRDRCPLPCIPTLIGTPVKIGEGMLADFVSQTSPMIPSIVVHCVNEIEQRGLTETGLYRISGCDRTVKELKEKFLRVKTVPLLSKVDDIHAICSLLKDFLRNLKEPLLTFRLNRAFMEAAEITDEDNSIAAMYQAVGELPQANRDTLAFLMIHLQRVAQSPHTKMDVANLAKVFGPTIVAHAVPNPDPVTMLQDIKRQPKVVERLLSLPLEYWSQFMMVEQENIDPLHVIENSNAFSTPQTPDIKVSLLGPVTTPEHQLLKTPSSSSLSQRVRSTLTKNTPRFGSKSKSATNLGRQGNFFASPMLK

[6] = molecular target: Melanin-concentrating hormone receptor 1 (Homo sapiens, UniProt Q99705); assay: Late-stage fluorescence-based counterscreen for antagonists of the G-protein coupled receptor 7 (GPR7): cell-based dose response assay to identify antagonists of the melanin-concentrating hormone receptor 1 (MCHR1). [Related pubchem assays (depositor defined):AID1861, AID1880, AID1952, AID2148, AID2251, AID2257, AID485339]; assay type: functional;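 also: stimulated with 30 nM MCH peptide agonist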
Chain of Melanin-concentrating hormone receptor 1 (Q99705 whole entry): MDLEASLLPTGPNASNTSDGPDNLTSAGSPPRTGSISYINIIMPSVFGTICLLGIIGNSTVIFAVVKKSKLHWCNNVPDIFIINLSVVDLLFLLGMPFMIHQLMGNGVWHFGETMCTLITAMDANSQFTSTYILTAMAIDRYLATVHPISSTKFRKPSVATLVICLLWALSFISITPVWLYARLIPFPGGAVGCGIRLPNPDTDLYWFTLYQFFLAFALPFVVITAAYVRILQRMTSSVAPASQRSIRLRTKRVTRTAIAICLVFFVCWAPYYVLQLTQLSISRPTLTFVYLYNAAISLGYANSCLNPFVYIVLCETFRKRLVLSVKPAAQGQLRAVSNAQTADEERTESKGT

SUMO-activating enzyme [7] = molecular target: T4, SUMO-activating enzyme (Homo sapiens, UniProt Q9UBT2); assay: inhibitors of in vitro SUMOylation cascade, primary screen, biochemical, HTRF, uHTS (AID 2006); assay type: protein-complex assay
T4 sequence (Q9UBE0 whole entry): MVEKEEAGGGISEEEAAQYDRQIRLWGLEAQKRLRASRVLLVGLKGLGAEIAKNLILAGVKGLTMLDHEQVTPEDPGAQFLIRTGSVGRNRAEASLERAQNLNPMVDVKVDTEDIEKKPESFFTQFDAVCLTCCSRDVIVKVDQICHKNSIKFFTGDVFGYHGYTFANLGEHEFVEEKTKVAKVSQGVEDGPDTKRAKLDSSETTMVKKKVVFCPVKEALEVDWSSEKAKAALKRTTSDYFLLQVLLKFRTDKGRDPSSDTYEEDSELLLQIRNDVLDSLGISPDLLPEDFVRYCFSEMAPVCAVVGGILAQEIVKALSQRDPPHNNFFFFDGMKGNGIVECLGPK
T4 sequence (Q9UBT2 whole entry): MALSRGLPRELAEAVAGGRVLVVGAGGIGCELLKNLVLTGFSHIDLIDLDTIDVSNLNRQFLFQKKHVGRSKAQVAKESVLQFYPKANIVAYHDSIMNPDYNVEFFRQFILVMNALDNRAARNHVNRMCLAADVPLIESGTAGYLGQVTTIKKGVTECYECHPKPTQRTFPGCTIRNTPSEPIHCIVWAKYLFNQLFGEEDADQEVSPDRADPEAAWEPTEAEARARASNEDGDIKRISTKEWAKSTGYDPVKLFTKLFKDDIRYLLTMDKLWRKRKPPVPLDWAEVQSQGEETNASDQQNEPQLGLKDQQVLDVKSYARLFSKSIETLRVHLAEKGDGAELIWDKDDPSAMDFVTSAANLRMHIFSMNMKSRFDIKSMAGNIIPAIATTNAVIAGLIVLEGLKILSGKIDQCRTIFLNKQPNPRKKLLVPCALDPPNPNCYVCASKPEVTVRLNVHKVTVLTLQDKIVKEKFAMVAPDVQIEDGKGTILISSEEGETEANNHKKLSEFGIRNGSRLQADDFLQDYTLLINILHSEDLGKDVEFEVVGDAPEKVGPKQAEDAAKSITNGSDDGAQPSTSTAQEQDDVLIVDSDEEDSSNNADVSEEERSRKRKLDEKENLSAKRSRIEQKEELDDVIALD

[8] = molecular target: Eukaryotic translation initiation factor 4E (Mus musculus, UniProt P63073); assay: eIF4E–eIF4G protein interaction inhibitors, dose response, biochemical, TR-FRET (AID 855); assay type: functional;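 also: potency for disrupting eIF4E binding to eIF4GI seen as loss of FRET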
Chain of Eukaryotic translation initiation factor 4E (P63073 whole entry): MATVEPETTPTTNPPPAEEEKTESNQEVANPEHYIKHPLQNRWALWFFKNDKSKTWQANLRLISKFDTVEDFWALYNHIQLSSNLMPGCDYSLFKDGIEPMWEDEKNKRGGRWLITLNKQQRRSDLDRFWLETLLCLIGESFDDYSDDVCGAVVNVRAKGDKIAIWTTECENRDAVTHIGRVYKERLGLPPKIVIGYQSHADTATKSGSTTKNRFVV

SUMO-activating enzyme [9] = molecular target: T4, SUMO-activating enzyme; assay: SUMOylation inhibitor hit validation, confirmation, SUMOylation inhibitor project, biochemical, AlphaScreen (AID 2018); assay type: functional
[10] = molecular target: T5, Zinc finger protein mex-5 (Caenorhabditis elegans, UniProt Q9XUB2); assay: MEX-5/TCR-2 RNA interaction inhibitors, dose response, biochemical, C. elegans, fluorescence polarization (AID 1960)
T5 sequence (Q9XUB2 whole entry): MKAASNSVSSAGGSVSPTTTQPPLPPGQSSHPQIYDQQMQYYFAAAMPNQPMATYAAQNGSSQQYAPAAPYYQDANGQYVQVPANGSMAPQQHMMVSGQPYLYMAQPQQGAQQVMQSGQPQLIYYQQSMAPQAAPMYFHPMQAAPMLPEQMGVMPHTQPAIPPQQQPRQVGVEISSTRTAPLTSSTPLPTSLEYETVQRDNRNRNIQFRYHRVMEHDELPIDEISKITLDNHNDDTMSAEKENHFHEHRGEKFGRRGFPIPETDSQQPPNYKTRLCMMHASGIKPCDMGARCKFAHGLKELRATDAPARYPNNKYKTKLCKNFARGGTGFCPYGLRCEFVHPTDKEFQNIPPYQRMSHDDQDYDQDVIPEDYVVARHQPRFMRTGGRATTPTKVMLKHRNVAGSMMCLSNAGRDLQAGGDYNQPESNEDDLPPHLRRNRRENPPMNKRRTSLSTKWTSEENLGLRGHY

Leucine aminopeptidase = molecular target: T6, Leucine aminopeptidase (Plasmodium falciparum 3D7, UniProt Q8IL11); assay: P. falciparum M17LAP inhibitors, primary screen, biochemical, fluorogenic H-Leu-NHMec substrate, 1536-well (AID 1619); assay type: functional
T6 sequence (Q8IL11 whole entry): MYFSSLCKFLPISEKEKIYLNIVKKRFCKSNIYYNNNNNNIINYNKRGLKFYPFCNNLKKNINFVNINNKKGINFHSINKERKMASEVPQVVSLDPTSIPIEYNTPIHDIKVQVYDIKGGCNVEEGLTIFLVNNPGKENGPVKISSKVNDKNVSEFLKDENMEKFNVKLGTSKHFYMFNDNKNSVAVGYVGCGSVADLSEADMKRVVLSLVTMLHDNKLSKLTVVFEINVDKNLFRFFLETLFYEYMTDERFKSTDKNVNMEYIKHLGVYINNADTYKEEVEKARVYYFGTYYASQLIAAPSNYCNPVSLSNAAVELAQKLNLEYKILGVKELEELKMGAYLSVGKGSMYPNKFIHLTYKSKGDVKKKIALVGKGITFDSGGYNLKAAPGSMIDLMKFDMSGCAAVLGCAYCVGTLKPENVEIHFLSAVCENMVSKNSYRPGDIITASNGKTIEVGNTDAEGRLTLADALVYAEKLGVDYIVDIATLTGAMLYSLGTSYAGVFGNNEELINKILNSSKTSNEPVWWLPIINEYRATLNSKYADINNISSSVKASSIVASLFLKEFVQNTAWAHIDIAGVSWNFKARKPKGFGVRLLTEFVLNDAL

[11] = molecular target: T7, RNA-binding protein pos-1 (Caenorhabditis elegans, UniProt G5EF15); assay: inhibitors of POS-1/mex-3 RNA binding, dose response, biochemical, fluorescence polarization (AID 1964);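 also: purified POS-1 fused to maltose binding protein made in E. coli; potency of compounds blocking POS-1 binding to fluorescent RNA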
T7 sequence (G5EF15 whole entry): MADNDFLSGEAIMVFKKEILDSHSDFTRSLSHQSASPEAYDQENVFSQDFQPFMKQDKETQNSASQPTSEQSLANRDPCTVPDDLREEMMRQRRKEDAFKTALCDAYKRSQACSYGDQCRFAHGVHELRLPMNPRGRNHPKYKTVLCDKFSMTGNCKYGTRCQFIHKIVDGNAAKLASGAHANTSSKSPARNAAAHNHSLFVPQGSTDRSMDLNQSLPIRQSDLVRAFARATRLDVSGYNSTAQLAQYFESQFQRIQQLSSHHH

Caspase-6 = molecular target: T8, Caspase-6 (Homo sapiens, UniProt P55212); assay: human caspase-6 inhibitors, dose response, biochemical, VEID-R110 fluorescence, cherry-pick (AID 720632)
T8 sequence (P55212 whole entry): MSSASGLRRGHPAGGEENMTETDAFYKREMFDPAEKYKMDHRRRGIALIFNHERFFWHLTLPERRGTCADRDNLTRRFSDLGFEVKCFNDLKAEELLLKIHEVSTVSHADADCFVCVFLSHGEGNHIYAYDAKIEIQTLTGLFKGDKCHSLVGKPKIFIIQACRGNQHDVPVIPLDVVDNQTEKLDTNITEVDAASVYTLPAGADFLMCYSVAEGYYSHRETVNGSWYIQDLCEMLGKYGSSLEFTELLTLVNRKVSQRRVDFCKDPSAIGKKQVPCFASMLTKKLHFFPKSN

[12] = molecular target: DNA dC->dU-editing enzyme APOBEC-3A (Homo sapiens, UniProt P31941); assay: APOBEC3A DNA deaminase inhibitors, dose response, biochemical (AID 504722); assay type: functional
Chain of DNA dC->dU-editing enzyme APOBEC-3A (P31941 whole entry): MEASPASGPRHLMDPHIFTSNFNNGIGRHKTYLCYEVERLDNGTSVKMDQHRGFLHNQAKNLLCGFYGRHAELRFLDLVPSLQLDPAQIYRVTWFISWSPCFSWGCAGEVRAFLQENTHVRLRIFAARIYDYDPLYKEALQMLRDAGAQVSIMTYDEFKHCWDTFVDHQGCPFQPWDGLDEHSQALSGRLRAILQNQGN

[13] = molecular target: DNA dC->dU-editing enzyme APOBEC-3G (Homo sapiens, UniProt Q9HC16); assay: Dose Response confirmation of small molecule APOBEC3G DNA Deaminase Inhibitors via a fluorescence-based single-stranded DNA deaminase assay. [Related pubchem assays (depositor defined):AID493012, AID493028]; assay type: functional
Chain of DNA dC->dU-editing enzyme APOBEC-3G (Q9HC16 whole entry): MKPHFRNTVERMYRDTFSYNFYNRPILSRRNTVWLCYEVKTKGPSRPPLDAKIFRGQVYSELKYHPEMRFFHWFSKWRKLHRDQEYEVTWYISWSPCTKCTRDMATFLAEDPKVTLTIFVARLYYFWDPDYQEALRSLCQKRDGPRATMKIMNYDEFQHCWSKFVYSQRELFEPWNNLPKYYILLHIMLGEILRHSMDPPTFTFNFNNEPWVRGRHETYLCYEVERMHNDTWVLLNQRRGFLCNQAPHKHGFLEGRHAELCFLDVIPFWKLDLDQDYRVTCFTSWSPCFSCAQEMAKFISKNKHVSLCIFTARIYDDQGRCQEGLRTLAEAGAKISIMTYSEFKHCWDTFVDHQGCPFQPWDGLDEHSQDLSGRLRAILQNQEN

T1 sequence (P98170 whole entry): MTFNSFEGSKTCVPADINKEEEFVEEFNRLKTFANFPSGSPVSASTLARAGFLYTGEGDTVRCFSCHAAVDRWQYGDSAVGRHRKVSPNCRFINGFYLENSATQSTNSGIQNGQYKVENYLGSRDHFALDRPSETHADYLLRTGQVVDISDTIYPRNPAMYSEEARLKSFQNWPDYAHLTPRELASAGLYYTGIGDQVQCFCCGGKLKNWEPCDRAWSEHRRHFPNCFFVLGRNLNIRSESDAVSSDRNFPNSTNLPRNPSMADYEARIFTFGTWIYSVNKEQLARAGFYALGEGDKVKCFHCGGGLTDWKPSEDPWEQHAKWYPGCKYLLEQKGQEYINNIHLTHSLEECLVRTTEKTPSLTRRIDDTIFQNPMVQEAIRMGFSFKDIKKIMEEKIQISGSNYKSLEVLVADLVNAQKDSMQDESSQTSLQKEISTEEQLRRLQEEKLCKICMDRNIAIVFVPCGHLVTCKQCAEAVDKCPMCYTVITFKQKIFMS

IC50 [1]: > 100 µM (not active)
IC50 [2]: > 100 µM (inactive)
SMILES: O=C(O)CCN1CCc2ccccc21

EC50 (Troponin, cardiac muscle): > 71.5 µM (inactive)
SMILES: Cc1cc(C)c2nc(NC(=O)C3CCCO3)sc2c1 (stereo not drawn)

SMILES: O=C(Nc1cc(Cl)ccc1C(=O)O)c1ccc(-c2ccccc2)cc1
IC50 (Hexokinase): 22.3 µM (active)

SMILES: Cc1ccc(-n2sc3cc(F)ccc3c2=O)c(C)c1
CC50 [3]: 72.5 µM (active)
IC50 (Hexokinase): 4.77 µM (active)
IC50 [4]: 9.17 µM (active)
IC50 [5]: 35.8 µM (active)

SMILES: O=C(Cn1sc2ccccc2c1=O)Nc1ccc(I)cc1
IC50 (Hexokinase): 14.8 µM (active)

IC50 [6]: 13.5 µM (inactive)
SMILES: COc1ccc(Oc2c(-c3ccco3)cnn(-c3ccc(C)cc3)c2=O)cc1

IC50 (SUMO-activating enzyme [7]): 29 µM (active)
IC50 [8]: 50 µM (inactive)
IC50 (SUMO-activating enzyme [9]): 6.16 µM (active)
EC50 [10]: 111 µM (active)
IC50 (Leucine aminopeptidase): 12.7 µM (active)
EC50 [11]: > 300 µM (not active)
AC50 (Caspase-6): 5.03 µM (active)
SMILES: Cc1cc(/C=N/Nc2ccc([N+](=O)[O-])cn2)c(C)n1-c1ccc(C(=O)O)cc1

SMILES: CC(/C=N/n1c(S)nnc1-c1cccnc1)=C\c1ccco1
IC50 [12]: > 100 µM (inactive)
IC50 [13]: 1.93 µM (active)

SMILES: Sc1nnc(-c2ccncc2)n1/N=C/c1ccccc1
IC50 [5]: 51.9 µM (active)
IC50 [12]: > 100 µM (inactive)
IC50 [13]: 2.52 µM (active)

SMILES: O=c1c(O)c(-c2ccc(O)c(O)c2)oc2cc(O)cc(O)c12 [QUERCETIN]
IC50 (Hexokinase): 22.4 µM (active)
